Test results taken from patent EP3521435A1, “A HIGH STRINGENCY SELECTION SYSTEM FOR PROTEIN EXPRESSION IN PROLINE-AUXOTROPHIC CELLS” (Bayer AG, priority 2018, dated 2019).
Like-named read-outs stand apart in the source and are kept apart here.

Legend:
[1] = tested on: CHO-S cells
Method: CHO-S cells (Thermo Fisher Scientific, A1155701) were passaged according to the manufacturer's recommendations at 37 °C and 5% CO2 in CD-CHO medium (Thermo Fisher Scientific , 10743029) containing 8 mM GlutaMAX. […] Viable cell densities and viabilities were recorded daily.

[2] = tested on: CHO-K1 cells; test: Cell viability post-transfection of transfected cell populations under selection conditions; format: cell-based, Chinese hamster; settings: for concentration at which recovery kinetics were affected: Table 8
Method: (§1) To efficiently test the impact of different procedures on improving selection stringency, experimental testing in stable cell populations was performed. As test molecules, enhanced green fluorescent protein (GFP) as well as a human IgG1 were chosen. CHO-K1 cells adapted to growth in suspension in defined medium were obtained from SAFC and cultivated in EX-CELL CD CHO Fusion medium (SAFC 14365C). Custom-made EX-CELL CD CHO Fusion medium without L-Proline (Pro) and without L-Ornithine (Orn) ("proline-free medium") was obtained from SAFC. The expression vector system was based on modified versions of "CET 1019 AS-puro-SceI" and "CET 1019 AD-puro-SceI" for GFP and human IgG1, respectively, from Merck-Millipore, containing the Puromycin selection marker (Puromycin N-acetyl-transferase) known to exert a high selection stringency. To minimize variations in cell populations derived from using different transfections or different vectors, the first series of experiments were conducted using vectors into which a P5CS expression cassette was cloned upstream of a UCOE element, in addition to the Puromycin selection marker present downstream of a gene of interest. This way, it was possible to pool different transfections using the same vector to obtain a common starting point, and split the mixture according to different selection conditions, minimizing any variations that are not due to selection conditions themselves. Expression of long and short isoform of murine P5CS (Protein: Delta-1-pyrroline-5-carboxylate synthase; Gene: Aldh18a1; UniProtKB accession number: Q9Z110-1 & Q9Z110-2) was driven by a SV40 promoter. A SV40 polyadenylation sequence was used at the 3' end of the gene. More details can be found in Table 1. Typically, CHO cells were cultivated in EX-CELL CD CHO Fusion medium containing 6 mM GlutaMAX (Thermo Fisher, 35050-38) ("CD-Fusion medium") at 37 °C with 5% CO2. Cells were grown to logarithmic phase under shaking conditions for transfections. 1e7 cells/cuvette were transfected using nucleofection (Amaxa Nucleofector II, following the manufacturer's recommendations) with 5 µg of linearized DNA. After transfection, cells were taken up in 1 ml medium and transferred into 1 well of a 6 well microtiter plate (MTP) already containing 1 ml medium. The cells were incubated for 24 h without shaking, after which 9 ml medium were added and cells were washed (either in standard or proline-free medium). Multiple transfections were pooled, if applicable. Cells were adjusted to 2e5 viable cells/ml and 10 ml were transferred to T-25 flasks. Reference cell populations were selected using 10 µg/ml Puromycin in CD-Fusion medium. For P5CS-based selection, EX-CELL CD CHO Fusion medium (custom-made, SAFC) containing 6 mM GlutaMAX without proline and without ornithine was used ("proline-free" or "CD-Fusion w/o Pro" medium), with or without additional selection pressure.
(§2) Cell viability of the different populations was monitored over time. As soon as cell populations appeared to recover from selection pressure, cells were transferred to Shake Flask or TubeSpins for expansion in suspension under shaking conditions. Subsequently, stable cell populations transfected with IgG were seeded at 2e5 viable cells/ml for batch fermentation without selection pressure (i.e. standard CD-Fusion medium containing proline and no other selective agents). The cells were cultivated for 5-10 days, viable cell densities and productivity were monitored over time. IgG titers were determined using Poros A-HPLC method. Typically, final batch titers were recorded at a time point at which majority of cultures had around 70% viability. Stable cell populations transfected with GFP vector were subjected to analysis by flow cytometry using Guava easyCyte 8HT Benchtop Flow Cytometer (Millipore). 250 µl of cell culture were transferred to 96 MTP and washed with PBS. Dead cells were excluded from analysis using propidium iodide (PI). […]

[3] = tested on: CHO-K1 cells; test: Flow cytometric analysis of GFP expression (MFI, high fluorescing cells) in stably selected cell populations; format: cell-based, Chinese hamster
Method: as §1, §2

[4] = tested on: CHO-K1 cells; test: Batch fermentation in shake flasks of human IgG1 expressing stable cell populations (Poros A-HPLC titer, viable cell density, viability); format: cell-based, Chinese hamster; settings: human IgG1, pJF1577, non-selecting conditions
Method: as §1, §2

[5] = Day 1, Proline-free Medium + 0,5mM L-Prolin
[6] = Day 1, Proline-free Medium + 0,25mM L-Prolin
[7] = Day 1, Proline-free Medium + 1,0mM L-Prolin
[8] = Day 1, Proline-free Medium + 2,5mM L-Prolin
[9] = Day 2, Proline-free Medium + 0,5mM L-Prolin
[10] = Day 2, Proline-free Medium + 0,25mM L-Prolin
[11] = Day 2, Proline-free Medium + 1,0mM L-Prolin
[12] = Day 2, Proline-free Medium + 2,5mM L-Prolin
[13] = Day 3, Proline-free Medium + 0,5mM L-Prolin
[14] = Day 3, Proline-free Medium + 0,25mM L-Prolin
[15] = Day 3, Proline-free Medium + 1,0mM L-Prolin
[16] = Day 3, Proline-free Medium + 2,5mM L-Prolin
[17] = Day 6, Proline-free Medium + 0,5mM L-Prolin
[18] = Day 6, Proline-free Medium + 0,25mM L-Prolin
[19] = Day 6, Proline-free Medium + 1,0mM L-Prolin
[20] = Day 6, Proline-free Medium + 2,5mM L-Prolin
[21] = day 20 post-transfection, pJF1556, CD-Fusion w/o Pro + 0.1 mM A2C
[22] = day 20 post-transfection, pJF1556, CD-Fusion w/o Pro + 0.1 mM A2C + 10 µg/ml Puromycin
[23] = day 20 post-transfection, pJF1556, CD-Fusion w/o Pro + 0.25 mM A2C

O=C(O)[C@@H]1CCCN1 [L-Prolin, L-Proline]
Viability [1, 5]: 98,2
Viable Cell Conc. [1, 5]: 3,7E+05
Viability [1, 6]: 95,6
Viable Cell Conc. [1, 6]: 3,5E+05
Viability [1, 7]: 100,0
Viable Cell Conc. [1, 7]: 3,6E+05
Viability [1, 8]: 99,3
Viable Cell Conc. [1, 8]: 3,3E+05
Viability [1, 9]: 99,7
Viable Cell Conc. [1, 9]: 6,3E+05
Viability [1, 10]: 98,1
Viable Cell Conc. [1, 10]: 5,7E+05
Viability [1, 11]: 99,7
Viable Cell Conc. [1, 11]: 5,6E+05
Viability [1, 12]: 97,5
Viable Cell Conc. [1, 12]: 4,9E+05
Viability [1, 13]: 99,5
Viable Cell Conc. [1, 13]: 1,2E+06
Viability [1, 14]: 99,6
Viable Cell Conc. [1, 14]: 9,1E+05
Viability [1, 15]: 99,2
Viable Cell Conc. [1, 15]: 1,1E+06
Viability [1, 16]: 99,8
Viable Cell Conc. [1, 16]: 1,1E+06
Viability [1, 17]: 99,9
Viable Cell Conc. [1, 17]: 3,8E+06
Viability [1, 18]: 98,2
Viable Cell Conc. [1, 18]: 1,3E+06
Viability [1, 19]: 99,5
Viable Cell Conc. [1, 19]: 6,6E+06
Viability [1, 20]: 99,7
Viable Cell Conc. [1, 20]: 6,3E+06

O=C(O)[C@@H]1C[C@H](O)CN1 [cis-4-Hydroxy-L-Proline]
Viability on day 12 post-transfection ([2]; pJF1555, CD-Fusion w/o Pro + 0.25 mM cis-4-Hydroxy-L-Proline): 89%
Viability on day 12 post-transfection ([2]; pJF1555, CD-Fusion w/o Pro + 0.5 mM cis-4-Hydroxy-L-Proline): 88%
Viability on day 12 post-transfection ([2]; pJF1555, CD-Fusion w/o Pro + 1 mM cis-4-Hydroxy-L-Proline): 65%
Viability on day 12 post-transfection ([2]; pJF1555, CD-Fusion w/o Pro + 2.5 mM cis-4-Hydroxy-L-Proline): 13%
Viability on day 12 post-transfection ([2]; pJF1555, CD-Fusion w/o Pro + 5 mM cis-4-Hydroxy-L-Proline): 13%
Viability on day 12 post-transfection ([2]; pJF1555, CD-Fusion w/o Pro + 10 mM cis-4-Hydroxy-L-Proline): 20%
concentration at which recovery kinetics were affected ([2]; pJF1555, proline-free medium): ≥ 1 mM
Frequency of high fluorescing cells ([3]; day 15 post-transfection, pJF1555, CD-Fusion w/o Pro + 0.25 mM cis-4-Hydroxy-L-Proline): 3.3%
Frequency of high fluorescing cells ([3]; day 15 post-transfection, pJF1555, CD-Fusion w/o Pro + 0.5 mM cis-4-Hydroxy-L-Proline): 1.7%
Frequency of high fluorescing cells ([3]; day 15 post-transfection, pJF1555, CD-Fusion w/o Pro + 2.5 mM cis-4-Hydroxy-L-Proline): 1.4%
Frequency of high fluorescing cells ([3]; day 15 post-transfection, pJF1555, CD-Fusion w/o Pro + 5 mM cis-4-Hydroxy-L-Proline): 0.0%
Frequency of high fluorescing cells ([3]; day 15 post-transfection, pJF1555, CD-Fusion w/o Pro + 10 mM cis-4-Hydroxy-L-Proline): 0.0%

O=C(O)C1NCCS1 (stereo not shown) [Thiazolidine-2-carboxylic acid]
Viability on day 12 post-transfection ([2]; pJF1555, CD-Fusion w/o Pro + 0.1 mM Thiazolidine-2-carboxylic acid): 87%
Viability on day 12 post-transfection ([2]; pJF1555, CD-Fusion w/o Pro + 0.5 mM Thiazolidine-2-carboxylic acid): 78%
Viability on day 12 post-transfection ([2]; pJF1555, CD-Fusion w/o Pro + 1 mM Thiazolidine-2-carboxylic acid): 11%
Viability on day 12 post-transfection ([2]; pJF1555, CD-Fusion w/o Pro + 2.5 mM Thiazolidine-2-carboxylic acid): 15%
Viability on day 12 post-transfection ([2]; pJF1555, CD-Fusion w/o Pro + 10 mM Thiazolidine-2-carboxylic acid): 16%
concentration at which recovery kinetics were affected ([2]; pJF1555, proline-free medium): 0.5 to 1 mM
Frequency of high fluorescing cells ([3]; day 15 post-transfection, pJF1555, CD-Fusion w/o Pro + 0.1 mM Thiazolidine-2-carboxylic acid): 4.9%
Frequency of high fluorescing cells ([3]; day 15 post-transfection, pJF1555, CD-Fusion w/o Pro + 0.5 mM Thiazolidine-2-carboxylic acid): 2.3%
Frequency of high fluorescing cells ([3]; day 15 post-transfection, pJF1555, CD-Fusion w/o Pro + 1 mM Thiazolidine-2-carboxylic acid): 0.0%
Frequency of high fluorescing cells ([3]; day 15 post-transfection, pJF1555, CD-Fusion w/o Pro + 2.5 mM Thiazolidine-2-carboxylic acid): 0.0%
Frequency of high fluorescing cells ([3]; day 15 post-transfection, pJF1555, CD-Fusion w/o Pro + 10 mM Thiazolidine-2-carboxylic acid): 0.0%

O=C(O)[C@@H]1CCN1 [A2C, L-Azetidine-2-carboxylic acid]
Batch titer day 7 ([4]; selected in CD-Fusion w/o Pro + 0.1 mM A2C + 10 µg/ml Puromycin): 82 mg/L
Batch titer day 7 ([4]; selected in CD-Fusion w/o Pro + 0.1 mM A2C): 135 mg/L
Batch titer day 7 ([4]; selected in CD-Fusion w/o Pro + 0.25 mM A2C + 10 µg/ml Puromycin): 145 mg/L
Batch titer day 7 ([4]; selected in CD-Fusion w/o Pro + 0.25 mM A2C): 166 mg/L
Batch titer day 7 ([4]; selected in CD-Fusion w/o Pro + 0.5 mM A2C + 10 µg/ml Puromycin): 34 mg/L
Batch titer day 7 ([4]; selected in CD-Fusion w/o Pro + 0.5 mM A2C): 166 mg/L
Viability on day 13 post-transfection ([2]; MOCK, CD-Fusion w/o Pro + 0.5 mM A2C + 10 µg/ml Puromycin): 15%
Viability on day 13 post-transfection ([2]; pJF1556, CD-Fusion w/o Pro + 0.1 mM A2C): 85%
Viability on day 13 post-transfection ([2]; pJF1556, CD-Fusion w/o Pro + 0.1 mM A2C + 10 µg/ml Puromycin): 62%
Viability on day 13 post-transfection ([2]; pJF1556, CD-Fusion w/o Pro + 0.25 mM A2C): 70%
Viability on day 13 post-transfection ([2]; pJF1556, CD-Fusion w/o Pro + 0.25 mM A2C + 10 µg/ml Puromycin): 22%
Viability on day 13 post-transfection ([2]; pJF1556, CD-Fusion w/o Pro + 0.5 mM A2C): 21%
Viability on day 13 post-transfection ([2]; pJF1556, CD-Fusion w/o Pro + 0.5 mM A2C + 10 µg/ml Puromycin): 21%
Frequency of high fluorescing cells [3, 21]: 7.1%
Median Fluorescence Intensity (MFI) (yellow) [3, 21]: 5743
Frequency of high fluorescing cells [3, 22]: 13.6%
Median Fluorescence Intensity (MFI) (yellow) [3, 22]: 9448
Frequency of high fluorescing cells [3, 23]: 7.1%
Median Fluorescence Intensity (MFI) (yellow) [3, 23]: 7578

O=C(O)[C@@H]1C[C@@H](O)CN1 [trans-4-Hydroxy-L-Proline]
Viability on day 12 post-transfection ([2]; pJF1555, CD-Fusion w/o Pro + 5 mM trans-4-Hydroxy-L-Proline): 84%
Viability on day 12 post-transfection ([2]; pJF1555, CD-Fusion w/o Pro + 10 mM trans-4-Hydroxy-L-Proline): 84%
selection pressure ([2]; up to 10 mM, pJF1555, proline-free medium): no increased selection pressure observable
Frequency of high fluorescing cells ([3]; day 15 post-transfection, pJF1555, CD-Fusion w/o Pro + 5 mM trans-4-Hydroxy-L-Proline): 2.6%
Frequency of high fluorescing cells ([3]; day 15 post-transfection, pJF1555, CD-Fusion w/o Pro + 10 mM trans-4-Hydroxy-L-Proline): 2.6%
